Test results taken from patent publication US8163766B2, “Beta-secretase modulators and methods of use” (Amgen Inc., priority 2005, dated 2012).

System: Aβ 40 in conditioned media of cells stably expressing Amyloid Precursor Protein (APP)
Assay: BACE Cell-Based Assay (Aβ40 in conditioned medium, sandwich ELISA)
Conditions: 24 hours of incubation with the test compounds, Aβ 40 by sandwich ELISA, read-out: IC50 values in the cell-based assay (inhibition of Aβ 40)
Description: The cell-based assay measures inhibition or reduction of Aβ40 in conditioned medium of test compound treated cells, which express amyloid precursor protein.
Cells stably expressing Amyloid Precursor Protein (APP) were plated at a density of 40K cells/well in 96 well plates (Costar). The cells were cultivated for 24 h at 37° C. and 5% CO2 in DMEM supplemented with 10% FBS. The test compounds were then added to cells in 10-point dose response concentrations with the starting concentration being either 100 μM or 10 μM. The compounds were diluted from stock solutions in DMSO and the final DMSO concentration of the test compounds on cells was 0.1%. After 24 hours of incubation with the test compounds the supernatant conditioned media was collected and the Aβ 40 levels were determined using a sandwich ELISA. The IC50 of the compound was calculated from the percent of control or percent inhibition of Aβ 40 as a function of the concentration of the test compound.
The sandwich ELISA to detect Aβ 40 was performed in 96 well microtiter plates, which were pre-treated with goat anti-rabbit IgG (Pierce). The capture and detecting antibody pair that were used to detect Aβ 40 from cell supernatants were affinity purified pAb40 (Biosource) and biotinylated 6E10 (Signet Labs Inc.), respectively. The optimal concentration for the pAb40 antibody was 3 μg/ml in Superblock/TBS (Pierce) that was supplemented with 0.05% Tween 20 (Sigma). Optimal concentration for the detection antibody 6E10-biotinylated was […] in Superblock/TBS (Pierce) that had been supplemented with 2% normal goat serum and 2% normal mouse serum.
Cellular supernatants were incubated with the capture antibody for 3 h at 4° C., followed by 3 wash steps in TBS-tween (0.05%). The detecting antibody incubation was for 2 h at 4° C., again followed by the wash steps as described previously. The final readout of the ELISA is Time-Resolved Fluorescence (counts per minute) using Delfia reagents Streptavidin-Europium and Enhancement solutions (Perkin Elmer) and the Victor 2 multilabel counter (Perkin Elmer).

| SMILES | IC50 [µM] |
| --- | --- |
| CCc1ccc2c(c1)[C@@H](NC[C@@H](O)[C@H](Cc1ccccc1)NC(=O)c1cc(-c3ccccc3F)c(=O)n3c1CCC3)CC1(CCC1)O2 [Example 126, N-((2S,3R)-4-((S)-6-Ethyl-2,2-spirocyclobutylchroman-4-ylamino)3-hydroxy-1-phenylbutan-2-yl)-6-(2-fluorophenyl)-5-oxo-1,2,3,5-tetrahydroindolizine-8-carboxamide] | ≤ 5 |
| CCc1ccc2c(c1)[C@@H](NC[C@@H](O)[C@H](Cc1ccccc1)NC(=O)c1cc(N3CCCC3=O)c(=O)n(C3CCCC3)c1)CC1(CCCCC1)O2 [Example 128, 1-cyclopentyl-N-((2S,3R)-4-((8)-6-ethyl-2,2-spirocyclohexyl-chroman-4-ylamino)-3-hydroxy-1-phenylbutan-2-yl)-6-oxo-5-(2-oxopyrrolidin-1-yl)-1,6-dihydropyridine-3-carboxamide] | ≤ 5 |
| CCc1ccc2c(c1)[C@@H](NC[C@@H](O)[C@H](Cc1ccccc1)NC(=O)c1ccc(=O)n(C3CCCCC3)c1)CC1(CCCCC1)O2 [Example 129, 1-cyclohexyl-N-((2S,3R)-4-((S)-6-ethyl-2,2-spirocyclohexyl-chroman-4-ylamino)-3-hydroxy-1-phenylbutan-2-yl)-6-oxo-1,6-dihydropyridine-3-carboxamide] | ≤ 5 |
| CCc1ccc2c(c1)[C@@H](NC[C@@H](O)[C@H](Cc1ccccc1)NC(=O)c1cc(N3CCCC3=O)c(=O)n(C3CCCC3)c1)CC1(CCCCCC1)O2 [Example 130, 1-cyclopentyl-N-((2S,3R)-4-((S)-6-ethyl-2,2-spirocycloheptyl-chroman-4-ylamino)-3-hydroxy-1-phenylbutan-2-yl)-6-oxo-5-(2-oxopyrrolidin-1-yl)-1,6-dihydropyridine-3-carboxamide] | ≤ 5 |
| Cc1ccc2c(c1)[C@@H](NC[C@@H](O)[C@H](Cc1ccccc1)NC(=O)c1cc(N3CCCC3=O)c(=O)n(C3CCCC3)c1)CC1(CCCC1)O2 [Example 131, 1-cyclopentyl-N-((2S,3R)-4-((S)-2,2-spirocyclopentyl-6-methylchroman-4-ylamino)-3-hydroxy-1-phenylbutan-2-yl)-6-oxo-5-(2-oxopyrrolidin-1-yl)-1,6-dihydropyridine-3-carboxamide] | ≤ 5 |
| Cc1ccc2c(c1)[C@@H](NC[C@@H](O)[C@H](Cc1ccccc1)NC(=O)c1ccc(=O)n(C3CCCC3)c1)CC1(CCCC1)O2 [Example 132, 1-cyclopentyl-N-((2S,3R)-4-((S)-2,2-spirocyclopentyl-6-methylchroman-4-ylamino)-3-hydroxy-1-phenylbutan-2-yl)-6-oxo-1,6-dihydropyridine-3-carboxamide] | ≤ 5 |
| Cc1ccc2c(c1)[C@@H](NC[C@@H](O)[C@H](Cc1ccccc1)NC(=O)c1ccc(=O)n(CC(C)(C)C)c1)CC1(CCCC1)O2 [Example 133, N-((2S,3R)-4-((S)-2,2-spirocyclopentyl-6-methylchroman-4-ylamino)-3-hydroxy-1-phenylbutan-2-yl)-1-neopentyl-6-oxo-1,6-dihydropyridine-3-carboxamide] | ≤ 5 |
| O=C(N[C@@H](Cc1ccccc1)[C@H](O)CN[C@H]1CC2(CCCC2)Oc2ccc(OC(F)(F)F)cc21)c1cc(N2CCCC2=O)c(=O)n(C2CCCC2)c1 [Example 134, 1-cyclopentyl-N-((2S,3R)-4-((S)-2,2-spirocyclopentyl-6-(trifluoromethoxy)chroman-4-ylamino)-3-hydroxy-1-phenylbutan-2-yl)-6-oxo-5-(2-oxopyrrolidin-1-yl)-1,6-dihydropyridine-3-carboxamide] | ≤ 5 |
| O=C(N[C@@H](Cc1ccccc1)[C@H](O)CN[C@H]1CC2(CCCC2)Oc2ccc(OC(F)(F)F)cc21)c1ccc(=O)n(C2CCCC2)c1 [Example 135, 1-cyclopentyl-N-((2S,3R)-4-((S)-2,2-spirocyclopentyl-6-(tri-fluoromethoxy)chroman-4-ylamino)-3-hydroxy-1-phenylbutan-2-yl)-6-oxo-1,6-dihydropyridine-3-carb oxamide] | ≤ 5 |
| CC(C)(C)Cn1cc(C(=O)N[C@@H](Cc2ccccc2)[C@H](O)CN[C@H]2CC3(CCCC3)Oc3ccc(OC(F)(F)F)cc32)ccc1=O [Example 136, N-((2S,3R)-4-((S)-2,2-spirocyclopentyl-6-(trifluoro-methoxy)chroman-4-ylamino)-3-hydroxy-1-phenylbutan-2-yl)-1-neopentyl-6-oxo-1,6-dihydropyridine-3-carboxamide] | ≤ 5 |
| CC(C)c1ccc2c(c1)[C@@H](NC[C@@H](O)[C@H](Cc1ccccc1)NC(=O)c1cc(N3CCCC3=O)c(=O)n(C3CCCC3)c1)CC1(CCCC1)O2 [Example 137, 1-cyclopentyl-N-((2S,3R)-4-((S)-2,2-spirocyclopentyl-6-iso-propylchroman-4-ylamino)-3-hydroxy-1-phenylbutan-2-yl)-6-oxo-5-(2-oxopyrrolidin-1-yl)-1,6-dihydropyridine-3-carboxamide] | ≤ 5 |
| CC(C)c1ccc2c(c1)[C@@H](NC[C@@H](O)[C@H](Cc1ccccc1)NC(=O)c1ccc(=O)n(C3CCCC3)c1)CC1(CCCC1)O2 [Example 138, 1-cyclopentyl-N-((2S,3R)-4-((S)-2,2-spirocyclopentyl-6-iso-propylchroman-4-ylamino)-3-hydroxy-1-phenylbutan-2-yl)-6-oxo-1,6-dihydropyridine-3-carb oxamide] | ≤ 5 |
| CCc1ccc2c(c1)[C@@H](NC[C@@H](O)[C@H](Cc1ccccc1)NC(=O)c1cc(N3CCCC3=O)c(=O)n(C3CCCC3)c1)CC1(CCCC1C)O2 (stereo partly drawn) [Example 140, 1-cyclopentyl-N-((2S,3R)-4-((S)-6-ethyl-2,2-(-methyl)-spirocyclopentylchroman-4-ylamino)-3-hydroxy-1-phenylbutan-2-yl)-6-oxo-5-(2-oxopyrrolidin-1-yl)-1,6-dihydropyridine-3-carboxamide] | ≤ 5 |
| CCc1ccc2c(c1)[C@@H](NC[C@@H](O)[C@H](Cc1ccccc1)NC(=O)c1ccc(=O)n(C3CCCC3)c1)CC1(CCCC1C)O2 (stereo partly drawn) [Example 141, 1-cyclopentyl-N-((2S,3R)-4-((S)-6-ethyl-2,2-(-methyl)-spirocyclopentylchroman-4-ylamino)-3-hydroxy-1-phenylbutan-2-yl)-6-oxo-1,6-dihydropyridine-3-carboxamide] | ≤ 5 |
| CCc1ccc2c(c1)[C@@H](NC[C@@H](O)[C@H](Cc1ccccc1)NC(=O)c1nn(-c3ccccc3)c(=O)cc1Cl)CC1(CCCC1)O2 [Example 142, 4-chloro-N-((2S,3R)-4-((S)-6-ethyl-2,2-spirocyclopentylchroman-4-ylamino)-3-hydroxy-1-phenylbutan-2-yl)-6-oxo-1-phenyl-1,6-dihydropyridazine-3-carboxamide] | ≤ 5 |
| CC(C)c1ccc2c(c1)[C@@H](NC[C@@H](O)[C@H](Cc1ccccc1)NC(=O)c1nn(-c3ccccc3)c(=O)cc1Cl)CC1(CCCC1)O2 [Example 144, 4-chloro-N-((2S,3R)-3-hydroxy-4-((S)-6-isopropyl-2,2-spirocyclopentylchroman-4-ylamino)-1-phenylbutan-2-yl)-6-oxo-1-phenyl-1,6-dihydropyridazine-3-carb oxamide] | ≤ 5 |
| CCc1ccc2c(c1)[C@@H](NC[C@@H](O)[C@H](Cc1ccccc1)NC(=O)c1ccc(=O)n(-c3ccccc3)n1)CC1(CCC1)O2 [Example 146, N-((2S,3R)-4-((S)-6-ethyl-2,2-spirocyclobutylchroman-4-ylamino)-3-hydroxy-1-phenylbutan-2-yl)-6-oxo-1-phenyl-1,6-dihydropyridazine-3-carboxamide] | ≤ 5 |
| CCc1ccc2c(c1)[C@@H](NC[C@@H](O)[C@H](Cc1ccccc1)NC(=O)c1nn(-c3ccccc3)c(=O)cc1Cl)CC1(CCC1)O2 [Example 147, 4-chloro-N-((2S,3R)-4-((S)-6-ethyl-2,2-spirocyclobutylchroman-4-ylamino)-3-hydroxy-1-phenylbutan-2-yl)-6-oxo-1-phenyl-1,6-dihydropyridazine-3-carboxamide] | ≤ 5 |
| O=C(N[C@@H](Cc1ccccc1)[C@H](O)CN[C@H]1CC2(CCCC2)Oc2ccccc21)c1cc(N2CCCC2=O)c(=O)n(C2CCCC2)c1 [Example 148, 1-cyclopentyl-N-((2S,3R)-4-((S)-2,2-spirocyclopentylchroman-4-ylamino)-3-hydroxy-1-phenylbutan-2-yl)-6-oxo-5-(2-oxopyrrolidin-1-yl)-1,6-dihydropyridine-3-carboxamide] | ≤ 5 |
| O=C(N[C@@H](Cc1ccccc1)[C@H](O)CN[C@H]1CC2(CCCC2)Oc2ccccc21)c1ccc(=O)n(C2CCCC2)c1 [Example 149, 1-cyclopentyl-N-((2S,3R)-4-((S)-2,2-spirocyclopentylchroman-4-ylamino)-3-hydroxy-1-phenylbutan-2-yl)-6-oxo-1,6-dihydropyridine-3-carboxamide] | ≤ 5 |
